Measurements published in PMC10743086, “Immunofluorescence-Based Assay for High-Throughput Analysis of Multidrug Resistance Markers in Non-Small Cell Lung Carcinoma Patient-Derived Cells” (Diagnostics, 2023).

Experiments:
Type in all cases: cell-based, human
NCI-H460 cells = test: Cytotoxicity by immunofluorescence cell scoring (cell counts), NSCLC cell line; settings: 24 h treatment
Protocol: (§1) Vinorelbine and pemetrexed were purchased from Selleckchem (Houston, TX, USA). Carboplatin, cisplatin, docetaxel, etoposide, gemcitabine, gefitinib, and paclitaxel were purchased from Sigma-Aldrich Chemie GmbH (Taufkirchen, Germany). The cisplatin, carboplatin, and gemcitabine were dissolved in sterile water, while the etoposide, docetaxel, vinorelbine, paclitaxel, gefitinib, and pemetrexed were dissolved in DMSO and stored at −20 °C. Before treatment, all the stock solutions were freshly diluted in sterile water.
(§2) The compounds were administered 48 h after seeding. The treatment lasted 24 h.
(§3) The immunofluorescence assay for the quantification of MDR markers was optimized to distinguish cancer cells from stromal cells using a cytokeratin 8/18 (CK8/18) antibody cocktail. The cells were fixed with 4% paraformaldehyde for 20 min at RT and washed three times with PBS using the Wellwash Versa microplate washer (Thermo Fisher Scientific, Waltham, MA, USA). The cells were then blocked with 2% bovine serum albumin (BSA) in PBS for 1 h at RT. […] Co-immunostaining with antibodies against MDR markers was performed to detect the presence of ABCB1, ABCC1, and ABCG2 in both the cancer and stromal cells. […] The secondary antibodies were incubated with the cells at RT for 2 h in the dark. […] Finally, the cells were washed three times with PBS and stored at 4 °C in the dark before imaging.
(§4) The fluorescently labeled cells were imaged using the ImageXpress Pico Automated Cell Imaging System (Molecular Devices, San Jose, CA, USA) with a 4x objective after determining the appropriate exposure time for each illumination filter. Analysis of the obtained images was performed using CellReporterXpress software v. 2.8.2.669 (Molecular Devices). The cytotoxicity of the compounds was determined using the Cell Scoring Analysis Protocol. […] Expression of MDR markers was determined using the Multi-Wavelength Cell Scoring Analysis Protocol.

NCI-H460/R cells = test: Cytotoxicity by immunofluorescence cell scoring (cell counts), multidrug-resistant NSCLC cell line; settings: 24 h treatment
Description: Human non-small cell lung carcinoma cells (NCI-H460) were purchased from the American Type Culture Collection (Rockville, MD, USA), and normal embryonic lung fibroblasts (MRC-5) were purchased from the European Collection of Authenticated Cell Cultures (Salisbury, UK). Multidrug-resistant NCI-H460/R cells overexpressing ABCB1 were selected from the NCI-H460 cells after selective pressure with doxorubicin [21]. All the cell lines were maintained in MEM medium (Sigma-Aldrich Chemie GmbH, Taufkirchen, Germany) supplemented with 10% FBS, 2 mM L-glutamine, and antibiotic-antimycotic solution. All the cell lines were maintained at 37 °C in a humidified atmosphere with 5% CO2.
as §1, §2, §3, §4

MRC-5 cells = test: Cytotoxicity by immunofluorescence cell scoring (cell counts), normal fibroblasts; settings: 24 h treatment
Protocol: as §1, §2, §3, §4

[1] = tested on: ABCB1 expression in MRC-5 cells; test: Immunofluorescence assay of MDR marker ABCB1 expression; settings: five concentrations, 24 h
Protocol: as §1, §2, §3, §4

[2] = tested on: ABCB1 expression in NCI-H460 cells; test: as above; settings: five concentrations, 24 h
Protocol: as §1, §2, §3, §4

[3] = tested on: ABCB1 expression in NCI-H460/R cells; test: as above; settings: five concentrations, 24 h
Protocol: as §1, §2, §3, §4

[4] = tested on: Cancer cells (CK8/18+) of patient-derived NSCLC cultures; test: Cytotoxicity in patient-derived NSCLC cultures, cancer cells; settings: 7 days treatment
Protocol: (§5) Tissue samples were collected during surgery, and the NSCLC diagnosis, histological grade, stage, necrosis, and lymph node invasion status were determined by histopathological analysis. […] The surgical specimens were placed in a sterile tube containing antibiotic-antimycotic solution (Sigma-Aldrich Chemie GmbH, Taufkirchen, Germany) and immediately transported to the research laboratory for further processing.
(§6) Upon arrival, the tissue was manually chopped with a surgical blade in a Petri dish under sterile conditions. The samples were cut into 3–5 mm pieces and further dissociated using the Tumor Dissociation Kit (Miltenyi Biotec, Bergisch Gladbach, Germany). The Tumor Dissociation Kit was used to dissociate the cells from the tumor tissue according to the manufacturer’s instructions. The samples were incubated in a 37 °C orbital shaker (KS 4000 ic control, IKA, Königswinter, Germany) at 300 rpm for 90 min. After incubation, the dissociated tissue was placed in DMEM/Ham’s F12 (1:3 ratio) growth medium supplemented with 5% fetal bovine serum (Corning, NY, USA), antibiotic-antimycotic solution, 4 µg/mL hydrocortisone (Sigma-Aldrich Chemie GmbH, Taufkirchen, Germany), 1 µg/mL insulin (Sigma-Aldrich Chemie GmbH, Taufkirchen, Germany), 10 ng/mL epidermal growth factor (BioLegend, San Diego, CA, USA), and 24 µg/mL adenine (Sigma-Aldrich Chemie GmbH, Taufkirchen, Germany). The DMEM and Ham’s F12 growth media were purchased from Sigma-Aldrich Chemie GmbH (Taufkirchen, Germany).
(§7) The dissociated tissue was cultured in T-25 cell culture flasks until cell attachment was observed before the medium was replaced. If no cell attachment was achieved within 7 days, the sample was discarded. Successful patient-derived cultures were maintained at 37 °C in a humidified atmosphere with 5% CO2 and grown to confluence before undergoing further experiments. […] Partial trypsinization was performed by detaching the fibroblast-like cells with 1 mL of 0.05% trypsin for 1 min at 37 °C, followed by 2 min at room temperature (RT).
as §1
(§8) The primary cells were seeded in black, clear bottom 384-well cell culture microplates (Thermo Fisher Scientific, Waltham, MA, USA) in 50 µL of cell growth medium at a density of 1000 cells per well. The compounds were administered 72 h after seeding. The treatment lasted 7 days.
as §3

[5] = tested on: ABCC1 expression in cancer cells (CK8/18+); test: Immunofluorescence assay of ABCC1 expression in patient-derived NSCLC cultures; settings: 7 days
Protocol: as §5, §6, §7, §1, §8, §3

[6] = tested on: ABCG2 expression in cancer cells (CK8/18+); test: Immunofluorescence assay of ABCG2 expression in patient-derived NSCLC cultures; settings: 7 days
Protocol: as §5, §6, §7, §1, §8, §3

[7] = NCI-H460 (co-culture with MRC-5)
[8] = NCI-H460/R (co-culture with MRC-5)
[9] = MRC-5 (co-culture with NCI-H460)
[10] = MRC-5 (co-culture with NCI-H460/R)
[11] = culture TR58, cancer cells (CK8/18+)
[12] = culture TR64, cancer cells (CK8/18+)
[13] = culture TR65, cancer cells (CK8/18+)
[14] = culture TR84, cancer cells (CK8/18+)
[15] = culture TR87, cancer cells (CK8/18+)

Work on N.N.[Cl][Pt][Cl] [Cisplatin, cisplatin] yielded an IC50 (NCI-H460 cells; [7]) of 9.79 µM, an IC50 (NCI-H460 cells; NCI-H460 monoculture) of 5.71 µM and an IC50 (NCI-H460/R cells; [8]) of 5.6 µM. The IC50 (NCI-H460/R cells; NCI-H460/R monoculture) was 5.33 µM, the IC50 (MRC-5 cells; [9]) was > 15 µM and the IC50 (MRC-5 cells; [10]) was > 15 µM. For the same compound, the IC50 (MRC-5 cells; MRC-5 monoculture) was 14.7 µM, the “ABCB1 Expression” value [1, 9] was “no change” and the “ABCB1 Expression” value [1, 10] was “no change”. For the same compound, the “ABCB1 Expression” value ([1]; MRC-5 monoculture) was “no change”, the “ABCB1 Expression” value [2, 7] was “no change” and the “ABCB1 Expression” value ([2]; NCI-H460 monoculture) was “increase (An increase in ABCB1 expression of at least 20% at a minimum of one concentration is shown in the table.)”. The “ABCB1 Expression” value [3, 8] was “no change”, the “ABCB1 Expression” value ([3]; NCI-H460/R monoculture) was “no change” and the IC50 [4, 11] was 5.78 µM. The IC50 [4, 12] was 6.07 µM, the IC50 [4, 13] was 14.6 µM and the IC50 [4, 14] was 2.11 µM. The IC50 [4, 15] was 4.82 µM, the ABCC1 expression [5, 11] was “no change” and the ABCC1 expression [5, 12] was “increase (An increase in ABCB1, ABCC1, or ABCG2 expression of at least 20% at a minimum of one concentration is shown in the table.)”. For the same compound, the ABCC1 expression [5, 13] was “increase (An increase in ABCB1, ABCC1, or ABCG2 expression of at least 20% at a minimum of one concentration is shown in the table.)”, the ABCC1 expression [5, 14] was “increase (An increase in ABCB1, ABCC1, or ABCG2 expression of at least 20% at a minimum of one concentration is shown in the table.)” and the ABCC1 expression [5, 15] was “increase (An increase in ABCB1, ABCC1, or ABCG2 expression of at least 20% at a minimum of one concentration is shown in the table.)”. The ABCG2 expression [6, 11] was “increase (An increase in ABCB1, ABCC1, or ABCG2 expression of at least 20% at a minimum of one concentration is shown in the table.)”, the ABCG2 expression [6, 12] was “increase (An increase in ABCB1, ABCC1, or ABCG2 expression of at least 20% at a minimum of one concentration is shown in the table.)” and the ABCG2 expression [6, 13] was “increase (An increase in ABCB1, ABCC1, or ABCG2 expression of at least 20% at a minimum of one concentration is shown in the table.)”. The ABCG2 expression [6, 14] was “increase (An increase in ABCB1, ABCC1, or ABCG2 expression of at least 20% at a minimum of one concentration is shown in the table.)” and the ABCG2 expression [6, 15] was “increase (An increase in ABCB1, ABCC1, or ABCG2 expression of at least 20% at a minimum of one concentration is shown in the table.)”.
